This data set deals with CCRIS mutagenicity, Ames/micronucleus/aberration tests. In words: CCRIS mutagenicity studies.
The mark [1] stands for this setting: Test System: AMES SALMONELLA TYPHIMURIUM, Strain/Indicator: TA98, Metabolic Activation: NONE, Method: PREINCUBATION
The mark [2] stands for this setting: Test System: AMES SALMONELLA TYPHIMURIUM, Strain/Indicator: TA98, Metabolic Activation: NONE, Method: STANDARD PLATE.
Where [3] appears, read: Test System: AMES SALMONELLA TYPHIMURIUM, Strain/Indicator: TA100, Metabolic Activation: NONE, Method: STANDARD PLATE.
[4] abbreviates: Test System: AMES SALMONELLA TYPHIMURIUM, Strain/Indicator: TA100, Metabolic Activation: RAT, LIVER, S-9, AROCLOR 1254, Method: STANDARD PLATE.
[5] abbreviates: Test System: AMES SALMONELLA TYPHIMURIUM, Strain/Indicator: TA1535, Metabolic Activation: NONE, Method: STANDARD PLATE.

The source made the active and inactive calls. The rule behind the calls is not given here.

On to `O=C1C(Cl)=C(Cl)C(=O)c2ccccc21`, for which the mutagenic call (Test System: AMES SALMONELLA TYPHIMURIUM, Strain/Indicator: TA97, Metabolic Activation: NONE, Method: PREINCUBATION) is “inactive; negative”; the mutagenic call (Test System: AMES SALMONELLA TYPHIMURIUM, Strain/Indicator: TA97, Metabolic Activation: RAT, LIVER, S-9, PHENOBARBITAL AND 5,6-BENZOFLAVONE, Method: PREINCUBATION) was “active; positive”; the mutagenic call under setting [1] is “inactive; negative”; the mutagenic call (Test System: AMES SALMONELLA TYPHIMURIUM, Strain/Indicator: TA98, Metabolic Activation: RAT LIVER S-9, PHENOBARBITAL AND BETA-NAPHTHOFLAVONE, Method: PREINCUBATION) was “inactive; negative”; the mutagenic call (Test System: AMES SALMONELLA TYPHIMURIUM, Strain/Indicator: TA98, Metabolic Activation: RAT, LIVER, S-9, PHENOBARBITAL AND 5,6-BENZOFLAVONE, Method: PREINCUBATION) was “inactive; negative”; the mutagenic call (Test System: AMES SALMONELLA TYPHIMURIUM, Strain/Indicator: TA100, Metabolic Activation: RAT LIVER S-9, PHENOBARBITAL AND BETA-NAPHTHOFLAVONE, Method: PREINCUBATION) is “inactive; negative”. The mutagenic call is, setting by setting: (Test System: AMES SALMONELLA TYPHIMURIUM, Strain/Indicator: TA100, Metabolic Activation: RAT, LIVER, S-9, PHENOBARBITAL AND 5,6-BENZOFLAVONE, Method: PREINCUBATION) “active; positive”; (Test System: AMES SALMONELLA TYPHIMURIUM, Strain/Indicator: TA102, Metabolic Activation: NONE, Method: PREINCUBATION) “active; positive”; (Test System: AMES SALMONELLA TYPHIMURIUM, Strain/Indicator: TA102, Metabolic Activation: RAT, LIVER, S-9, PHENOBARBITAL AND 5,6-BENZOFLAVONE, Method: PREINCUBATION) “active; positive”; (Test System: AMES SALMONELLA TYPHIMURIUM, Strain/Indicator: TA104, Metabolic Activation: NONE, Method: PREINCUBATION) “active; positive”; (Test System: AMES SALMONELLA TYPHIMURIUM, Strain/Indicator: TA104, Metabolic Activation: RAT, LIVER, S-9, PHENOBARBITAL AND 5,6-BENZOFLAVONE, Method: PREINCUBATION) “active; positive”; (Test System: AMES SALMONELLA TYPHIMURIUM, Strain/Indicator: TA1535, Metabolic Activation: NONE, Method: PREINCUBATION) “inactive; negative”. Besides, the mutagenic call is “inactive; negative” (Test System: AMES SALMONELLA TYPHIMURIUM, Strain/Indicator: TA1535, Metabolic Activation: RAT LIVER S-9, PHENOBARBITAL AND BETA-NAPHTHOFLAVONE, Method: PREINCUBATION); “inactive; negative” (Test System: AMES SALMONELLA TYPHIMURIUM, Strain/Indicator: TA1535, Metabolic Activation: RAT, LIVER, S-9, PHENOBARBITAL AND 5,6-BENZOFLAVONE, Method: PREINCUBATION); “inactive; negative” (Test System: AMES SALMONELLA TYPHIMURIUM, Strain/Indicator: TA1537, Metabolic Activation: NONE, Method: PREINCUBATION); “inactive; negative” (Test System: AMES SALMONELLA TYPHIMURIUM, Strain/Indicator: TA1537, Metabolic Activation: RAT LIVER S-9, PHENOBARBITAL AND BETA-NAPHTHOFLAVONE, Method: PREINCUBATION); “inactive; negative” (Test System: AMES SALMONELLA TYPHIMURIUM, Strain/Indicator: TA1537, Metabolic Activation: RAT, LIVER, S-9, PHENOBARBITAL AND 5,6-BENZOFLAVONE, Method: PREINCUBATION); “inactive; negative” (Test System: AMES SALMONELLA TYPHIMURIUM, Strain/Indicator: TA1538, Metabolic Activation: NONE, Method: PREINCUBATION). Besides, the mutagenic call (Test System: AMES SALMONELLA TYPHIMURIUM, Strain/Indicator: TA1538, Metabolic Activation: RAT LIVER S-9, PHENOBARBITAL AND BETA-NAPHTHOFLAVONE, Method: PREINCUBATION) is “inactive; negative”; the mutagenic call (Test System: AMES SALMONELLA TYPHIMURIUM, Strain/Indicator: TA1538, Metabolic Activation: RAT, LIVER, S-9, PHENOBARBITAL AND 5,6-BENZOFLAVONE, Method: PREINCUBATION) was “inactive; negative”; the mutagenic call (Test System: AMES SALMONELLA TYPHIMURIUM, Strain/Indicator: TA2637, Metabolic Activation: NONE, Method: PREINCUBATION) was “inactive; negative”; the mutagenic call (Test System: AMES SALMONELLA TYPHIMURIUM, Strain/Indicator: TA2637, Metabolic Activation: RAT, LIVER, S-9, PHENOBARBITAL AND 5,6-BENZOFLAVONE, Method: PREINCUBATION) is “active; positive”; the mutagenic call (Test System: E.COLI, Strain/Indicator: WP2UVRA, Metabolic Activation: NONE, Method: PREINCUBATION) was “inactive; negative”; the mutagenic call (Test System: E.COLI, Strain/Indicator: WP2UVRA, Metabolic Activation: RAT LIVER S-9, PHENOBARBITAL AND BETA-NAPHTHOFLAVONE, Method: PREINCUBATION) was “inactive; negative”.

Take `O=C(/C=C/c1ccc(-c2ccccc2)cc1)c1ccccc1`: the mutagenic call runs as follows: under setting [2], “inactive; negative”; (Test System: AMES SALMONELLA TYPHIMURIUM, Strain/Indicator: TA98, Metabolic Activation: RAT, LIVER, S-9, AROCLOR 1254, Method: STANDARD PLATE) “inactive; negative”; under setting [3], “inactive; negative”; under setting [4], “inactive; negative”.

In the case of `CN(C(=O)CCl)c1snc2ccccc12`, the mutagenic call runs as follows: under setting [2], “inactive; negative”; (Test System: AMES SALMONELLA TYPHIMURIUM, Strain/Indicator: TA98, Metabolic Activation: S-9, Method: STANDARD PLATE) “inactive; negative”; under setting [3], “inactive; negative”; (Test System: AMES SALMONELLA TYPHIMURIUM, Strain/Indicator: TA100, Metabolic Activation: S-9, Method: STANDARD PLATE) “inactive; negative”; under setting [5], “inactive; negative”; (Test System: AMES SALMONELLA TYPHIMURIUM, Strain/Indicator: TA1535, Metabolic Activation: S-9, Method: STANDARD PLATE) “inactive; negative”. Also, the mutagenic call is “inactive; negative” (Test System: AMES SALMONELLA TYPHIMURIUM, Strain/Indicator: TA1537, Metabolic Activation: NONE, Method: STANDARD PLATE) and “inactive; negative” (Test System: AMES SALMONELLA TYPHIMURIUM, Strain/Indicator: TA1537, Metabolic Activation: S-9, Method: STANDARD PLATE).

With `CCc1cc2ccccc2c2ccc3c(c12)[C@@H]1O[C@@H]1[C@H](O)[C@H]3O`, under “Test System: AMES SALMONELLA TYPHIMURIUM, Strain/Indicator: TA100, Metabolic Activation: NONE, Method: PREINCUBATION”, the mutagenic call is “active; positive”.

Take `c1ccc(-c2ccc(OCC3CO3)cc2)cc1` (centres undefined): the mutagenic call is, setting by setting: under setting [3], “active; positive”; under setting [5], “active; positive”.

In the case of `O=C(N[C@H](CO)[C@H](O)c1ccc([N+](=O)[O-])cc1)C(Cl)Cl`, the mutagenic call is, setting by setting: (Test System: CHINESE HAMSTER V-79, Strain/Indicator: V-79/6-THIOGUANINE, Metabolic Activation: NONE) “active; positive”; (Test System: CHINESE HAMSTER V-79, Strain/Indicator: V-79/6-THIOGUANINE, Metabolic Activation: RAT HEPATOCYTES) “inactive; negative”.

As to `O=C(O)[C@H]1OC(Oc2ccc3cc4ccc5cccc6ccc(c3c2)c4c56)[C@H](O)[C@@H](O)[C@@H]1O` (some centres undefined), the mutagenic call runs as follows: under setting [1], “inactive; negative”; (Test System: AMES SALMONELLA TYPHIMURIUM, Strain/Indicator: TA98, Metabolic Activation: RAT, LUNG, S-9, Method: PREINCUBATION) “inactive; negative”.

`O=[N+]([O-])c1ccc(-c2nc(NCCO)c3ccccc3n2)s1`: the mutagenic call reads like this: under setting [2], “active; positive”; under setting [3], “active; positive”.

Take `Cn1sc(Cl)cc1=O` (tested in a mixture with another compound): the mutagenic call runs as follows: under setting [3], “active; positive”; under setting [4], “active; positive”.

Regarding `CCCCCCC[CH2][Sn]([Cl])([Cl])[CH2]CCCCCCC`, the mutagenic call is “active; positive” (Test System: CHINESE HAMSTER V-79, Strain/Indicator: V-79/8-AZAGUANINE, Metabolic Activation: NONE) and “inactive; negative” (Test System: CHINESE HAMSTER V-79, Strain/Indicator: V-79/8-AZAGUANINE, Metabolic Activation: RAT HEPATOCYTES).
